Columns and labels:
[1] = tested on: PANC-1 pancreatic cancer cell line; test: Crystal Violet viability assay, PANC-1; format: cell-based, human; settings: for ABSORBANCE: 0.1 μg/mL cisplatin; for CVE 24 h / CVE 48 h / CVE 72 h: Run 1 average
Description: (§1) Three different viability assays were chosen to complement each other and yielded results dependent on concentration and cell line: the Methyl Tetrazolium dye assay, the Sulforhodamine B fluorescent dye assay, and the Crystal Violet dye assay.
The Sulforhodamine B and Crystal Violet assays provide information about protein and were used to complement the Methyl-Tetrazolium dye assay. […] It is used for the quantification of cellular proteins of cultured cells. The assay using Crystal Violet, a dye that binds electrostatically to proteins and stains DNA, provides a reliable, simple assay for measuring viability of cells.
The Methyl Tetrazolium, Sulforhodamine B, and Crystal Violet assays were used to assess cell viabilities. The incubation times were 24 hours, 48 hours, and 72 hours. The Nerium oleander extract Anvirzel™ (a hot water extract of oleander obtained from Salud Integral, Honduras) was tested in concentrations ranging from 0.01 ng/mL to 10 ng/mL.
(§2) Cells were detached by trypsinization (Trypsin-0.25% EDTA, Invitrogen, 25200-072) during the logarithmic phase of culture growth and plated in 96-well plates (18.000 cells/well) (Corning, Costar 359) in a final volume of 200 μl of medium per well. […] The absorbance was measured after 24 hours, 48 hours, and 72 hours of incubation.
For the Crystal Violet assay, the medium was removed from the 96-well plates, the plates rinsed with PBS (Sigma, P3813) and then the cells were […] by the addition of 10% formalin (MERCK, 1.04003.2500) for 20 minutes at RT. Formalin was removed and 0.25% aqueous crystal violet (Sigma, HT901), dissolved in water, was added for 10 minutes at RT. Unbound Crystal Violet was rinsed by washing with water and finally 33% acetic acid was added to dissolve the dye.
(§3) The optical density of each plate was measured on a μQuant spectrophotometer and the data were analyzed with Gen5 software (μQuant Biomolecular Spectrophotometer MQX200 and Gen5™ Microplate Data Collection & Analysis software, BioTek® Instruments. Inc, April 2008). Absorbance was measured at 570 nm for all assays and a second wavelength was measured in order to subtract noise. For the Methyl-Tetrazolium assay this second wavelength was 630 nm and for the Sulforhodamine B and Crystal Violet assays it was 690 nm.

[2] = tested on: PANC-1 pancreatic cancer cell line; test: Sulforhodamine B viability assay, PANC-1; format: cell-based, human; set-up: key to Average SRB: absorbance (optical density) at 570 nm, second wavelength subtracted; settings: for ABSORBANCE: 0.1 μg/mL cisplatin; for SRB 24 h / SRB 48 h / SRB 72 h: Run 1 average
Description: as §1
The Sulforhodamine B and Crystal Violet assays provide information about protein and were used to complement the Methyl-Tetrazolium dye assay. […] It is used for the quantification of cellular proteins of cultured cells. The assay using Crystal Violet, a dye that binds electrostatically to proteins and stains DNA, provides a reliable, simple assay for measuring viability of cells. […]
as §2
For the Sulforhodamine B assay, 96-well plates were fixed by 10% trichloroacetic acid (Fluka, 91228) and were incubated at 4° C. for 1 hour. Afterwards, plates were rinsed with water and cells were stained with 0.4% Sulforhodamine B (Sigma, 341738), dissolved in 1% acetic acid (Carlo Ebra, 401422) for 15 minutes at room temperature (RT). The unbound stain was washed twice with 1% acetic acid. Finally, 10 mM Tris Buffer pH 10.5 (Sigma, T6791) was added to dissolve the dye.
as §3

[3] = PANC-1, Run 2, 24 h, 0.1 μg/ml CDDP
[4] = PANC-1, Run 2, 24 h, 1 μg/ml CDDP
[5] = PANC-1, Run 2, 24 h, 10 μg/ml CDDP
[6] = PANC-1, Run 2, 24 h, 100 μg/ml CDDP
[7] = PANC-1, Run 2, 48 h, 0.1 μg/ml CDDP
[8] = PANC-1, Run 2, 48 h, 1 μg/ml CDDP
[9] = PANC-1, Run 2, 48 h, 10 μg/ml CDDP
[10] = PANC-1, Run 2, 48 h, 100 μg/ml CDDP
[11] = PANC-1, Run 2, 72 h, 0.1 μg/ml CDDP
[12] = PANC-1, Run 2, 72 h, 1 μg/ml CDDP
[13] = PANC-1, Run 2, 72 h, 10 μg/ml CDDP
[14] = PANC-1, Run 2, 72 h, 100 μg/ml CDDP
[15] = PANC-1, Run 3, 24 h, 0.1 μg/ml CDDP
[16] = PANC-1, Run 3, 24 h, 1 μg/ml CDDP
[17] = PANC-1, Run 3, 24 h, 10 μg/ml CDDP
[18] = PANC-1, Run 3, 24 h, 100 μg/ml CDDP
[19] = PANC-1, Run 3, 48 h, 0.1 μg/ml CDDP
[20] = PANC-1, Run 3, 48 h, 1 μg/ml CDDP
[21] = PANC-1, Run 3, 48 h, 10 μg/ml CDDP
[22] = PANC-1, Run 3, 48 h, 100 μg/ml CDDP
[23] = PANC-1, Run 3, 72 h, 0.1 μg/ml CDDP
[24] = PANC-1, Run 3, 72 h, 1 μg/ml CDDP
[25] = PANC-1, Run 3, 72 h, 10 μg/ml CDDP
[26] = PANC-1, Run 3, 72 h, 100 μg/ml CDDP

Compound: N.N.[Cl][Pt][Cl] [cisplatin]
- ABSORBANCE ([1]; PANC-1, 48 h): 0.753
- ABSORBANCE ([1]; PANC-1, 72 h): 0.872
- Average CVE [1, 3]: 0.793
- Average CVE [1, 4]: 0.456
- Average CVE [1, 5]: 0.602
- Average CVE [1, 6]: 0.345
- Average CVE [1, 7]: 0.575
- Average CVE [1, 8]: 0.249
- Average CVE [1, 9]: 0.33
- Average CVE [1, 10]: 0.323
- Average CVE [1, 11]: 0.839
- Average CVE [1, 12]: 0.514
- Average CVE [1, 13]: 0.49
- Average CVE [1, 14]: 0.385
- Average CVE [1, 15]: 0.476
- Average CVE [1, 16]: 0.457
- Average CVE [1, 17]: 0.698
- Average CVE [1, 18]: 0.428
- Average CVE [1, 19]: 0.753
- Average CVE [1, 20]: 0.395
- Average CVE [1, 21]: 0.218
- Average CVE [1, 22]: 0.18
- Average CVE [1, 23]: 0.872
- Average CVE [1, 24]: 0.358
- Average CVE [1, 25]: 0.421
- Average CVE [1, 26]: 0.253
- CVE 24 h ([1]; 0.1 μg/ml CDDP): 0.324
- CVE 48 h ([1]; 0.1 μg/ml CDDP): 0.717
- CVE 72 h ([1]; 0.1 μg/ml CDDP): 0.676
- CVE 24 h ([1]; 1 μg/ml CDDP): 0.125
- CVE 48 h ([1]; 1 μg/ml CDDP): 0.429
- CVE 72 h ([1]; 1 μg/ml CDDP): 0.262
- CVE 24 h ([1]; 10 μg/ml CDDP): 0.191
- CVE 48 h ([1]; 10 μg/ml CDDP): 0.466
- CVE 72 h ([1]; 10 μg/ml CDDP): 0.337
- CVE 24 h ([1]; 100 μg/ml CDDP): 0.153
- CVE 48 h ([1]; 100 μg/ml CDDP): 0.381
- CVE 72 h ([1]; 100 μg/ml CDDP): 0.28
- ABSORBANCE ([2]; PANC-1, 48 h): 1.861
- ABSORBANCE ([2]; PANC-1, 72 h): 2.536
- Average SRB [2, 3]: 1.924
- Average SRB [2, 4]: 2.391
- Average SRB [2, 5]: 2.075
- Average SRB [2, 6]: 1.821
- Average SRB [2, 7]: 1.505
- Average SRB [2, 8]: 1.549
- Average SRB [2, 9]: 1.106
- Average SRB [2, 10]: 0.752
- Average SRB [2, 11]: 2.471
- Average SRB [2, 12]: 2.171
- Average SRB [2, 13]: 1.815
- Average SRB [2, 14]: 1.374
- Average SRB [2, 15]: 1.881
- Average SRB [2, 16]: 2.008
- Average SRB [2, 17]: 1.74
- Average SRB [2, 18]: 2.087
- Average SRB [2, 19]: 1.861
- Average SRB [2, 20]: 1.165
- Average SRB [2, 21]: 0.954
- Average SRB [2, 22]: 0.858
- Average SRB [2, 23]: 2.536
- Average SRB [2, 24]: 2.281
- Average SRB [2, 25]: 2.07
- Average SRB [2, 26]: 1.584
- SRB 24 h ([2]; 0.1 μg/ml CDDP): 1.369
- SRB 48 h ([2]; 0.1 μg/ml CDDP): 2.223
- SRB 72 h ([2]; 0.1 μg/ml CDDP): 2.191
- SRB 24 h ([2]; 1 μg/ml CDDP): 1.748
- SRB 48 h ([2]; 1 μg/ml CDDP): 1.748
- SRB 72 h ([2]; 1 μg/ml CDDP): 1.47
- SRB 24 h ([2]; 10 μg/ml CDDP): 1.597
- SRB 48 h ([2]; 10 μg/ml CDDP): 1.339
- SRB 72 h ([2]; 10 μg/ml CDDP): 1.435
- SRB 24 h ([2]; 100 μg/ml CDDP): 1.993
- SRB 48 h ([2]; 100 μg/ml CDDP): 1.53
- SRB 72 h ([2]; 100 μg/ml CDDP): 1.433

Reference: patent US20190343908A1, “Therapeutic Combination for the Treatment of Cancer” (Nerium Biotechnology Inc., priority 2011, published 2019)
